# In publication PMC10698194 (Nature Communications, 2023):
# “And” between values parts separate entries of the source, which are not always exact repeats. Identical values can stand only once. Like-named read-outs stand apart in the source and are kept apart here. Bridge positions count the residues as written; N and C are the ends. Square brackets hold non-standard residues; d marks the D form. Peptide text beside a SMILES is read from it. * marks the point of attachment. X1 = C=CCN1CC[C@]23c4c5ccc(O)c4O[C@H]2[C@H](N*)CC[C@@]3(O)[C@H]1C5
# Assays:
# [1] = biological target: T1, human MOR (Homo sapiens, UniProt P35372); assay: [35S]GTPγS binding assay, CHO membranes; format: biochemical; conditions: relative to DAMGO
# T1 construct: expressed in transfected cells
# [2] = biological target: T2, mouse KOR (Mus musculus, UniProt P33534); assay: biochemical; format: binding; set-up: expressed in transfected cells; conditions: for specific [3H]DPN binding, normalized to 100%: replicates; for Ki: [3H]DPN 1 nM, read-out: Ki
# [3] = biological target: T2, mouse KOR; assay: cell-based; set-up: expressed in transfected cells; conditions: for Emax: HEK-293T, read-out: Emax cAMP assay; for EC50: read-out: EC50 cAMP assay
# [4] = biological target: T3, mouse KOR, Gαi2 (Mus musculus, UniProt P33534); assay: TRUPATH BRET G protein assay, Gαi2; format: cell-based
# T3 construct: expressed in transfected cells; host or cells: HEK293T (ATCC, CRL-3216), transient
# [5] = biological target: human KOR (Homo sapiens, UniProt P41145); assay: cell-based; set-up: expressed in transfected cells; host or cells: HEK293, transient
# [6] = biological target: T4, human KOR D138A (Homo sapiens, UniProt P41145, D138A); assay: cAMP inhibition assay normalized to salvinorin A; format: cell-based
# T4 construct: expressed in transfected cells
# [7] = biological target: T5, human KOR E209A (Homo sapiens, UniProt P41145, E209A); format: cell-based; conditions: KOR(E209A), Log [drug], individual replicates
# T5 construct: FLAG; expressed in transfected cells; host or cells: HEK293 / HEK293T, transient
# [8] = biological target: T6, human KOR E297A (Homo sapiens, UniProt P41145, E297A); format: cell-based; conditions: KOR(E297A), Log [drug], individual replicates
# T6 construct: FLAG; expressed in transfected cells; host or cells: HEK293T
# [9] = biological target: T7, human KOR L309A (Homo sapiens, UniProt P41145, L309A); format: cell-based; conditions: KOR(L309A), Log [drug], individual replicates
# T7 construct: FLAG; expressed in transfected cells; host or cells: HEK293T
# [10] = biological target: T6, human KOR E297A; assay: BRET β-arrestin-2 biosensor assay; format: cell-based; conditions: KOR(E297A), Log [drug], individual replicates
# human KOR, sequence (P41145 whole entry): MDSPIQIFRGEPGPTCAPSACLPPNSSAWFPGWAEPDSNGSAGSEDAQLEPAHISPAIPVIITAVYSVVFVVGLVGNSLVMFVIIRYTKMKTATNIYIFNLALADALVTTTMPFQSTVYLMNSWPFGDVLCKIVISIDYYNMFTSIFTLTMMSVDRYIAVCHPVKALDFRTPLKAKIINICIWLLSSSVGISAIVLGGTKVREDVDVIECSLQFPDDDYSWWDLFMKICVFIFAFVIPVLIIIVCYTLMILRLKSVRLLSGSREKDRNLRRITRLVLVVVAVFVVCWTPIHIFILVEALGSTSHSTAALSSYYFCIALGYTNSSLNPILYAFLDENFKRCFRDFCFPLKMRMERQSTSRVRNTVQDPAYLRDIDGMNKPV
# T3 sequence (P33534 whole entry): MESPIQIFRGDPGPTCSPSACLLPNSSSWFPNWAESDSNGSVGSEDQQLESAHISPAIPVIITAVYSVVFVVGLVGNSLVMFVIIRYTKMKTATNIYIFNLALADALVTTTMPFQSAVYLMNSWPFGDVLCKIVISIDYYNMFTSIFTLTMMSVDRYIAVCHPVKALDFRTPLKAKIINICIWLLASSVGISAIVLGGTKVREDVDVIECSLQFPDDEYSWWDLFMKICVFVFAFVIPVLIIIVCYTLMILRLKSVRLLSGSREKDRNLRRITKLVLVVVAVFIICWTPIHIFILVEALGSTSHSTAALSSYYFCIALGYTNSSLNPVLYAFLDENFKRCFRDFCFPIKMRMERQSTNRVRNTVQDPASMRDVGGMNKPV
# T2 sequence (P33534 whole entry): as above
# T4 sequence (P41145 whole entry D138A): as the sequence (P41145 whole entry) above, with D138A counted along it
# T6 sequence (P41145 whole entry E297A): as the sequence (P41145 whole entry) above, with E297A counted along it
# T7 sequence (P41145 whole entry L309A): as the sequence (P41145 whole entry) above, with L309A counted along it
# T5 sequence (P41145 whole entry E209A): as the sequence (P41145 whole entry) above, with E209A counted along it
# T1 sequence (P35372 whole entry): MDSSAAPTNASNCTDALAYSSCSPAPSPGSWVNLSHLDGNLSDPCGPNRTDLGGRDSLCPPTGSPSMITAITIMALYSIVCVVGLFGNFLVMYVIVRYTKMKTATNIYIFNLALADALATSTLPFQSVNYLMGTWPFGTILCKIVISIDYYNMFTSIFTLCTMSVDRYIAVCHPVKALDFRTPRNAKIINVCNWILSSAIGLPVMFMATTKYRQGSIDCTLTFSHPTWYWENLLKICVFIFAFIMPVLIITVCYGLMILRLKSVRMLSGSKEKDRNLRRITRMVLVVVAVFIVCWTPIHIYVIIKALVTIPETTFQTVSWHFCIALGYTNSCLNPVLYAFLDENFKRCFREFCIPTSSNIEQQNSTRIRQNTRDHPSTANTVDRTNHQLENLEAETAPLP
compound,measurement,setting,value
DAMGO,Emax (%) MOR,[1],100%
C=CCN1CC[C@]23c4c5ccc(O)c4O[C@H]2[C@H](NC(=O)[C@@H](Cc2ccccc2)NC(=O)[C@H](CO)NC(=O)[C@@H]2CSCC(=O)N[C@H](CO)C(=O)N[C@H](CC(=O)O)C(=O)N[C@H](Cc4c[nH]cn4)C(=O)N[C@@H](C)C(=O)N[C@@H](C)C(=O)N2)CC[C@@]3(O)[C@H]1C5 [DNCP-β-NalA(4)],"specific [3H]DPN binding, normalized to 100%",[2]; Log [ligand] (M) -5,7 and 5.59 and 5.4127
same,"specific [3H]DPN binding, normalized to 100%",[2]; Log [ligand] (M) -5.5,12.4013 and 7.976 and 9.019
same,"specific [3H]DPN binding, normalized to 100%",[2]; Log [ligand] (M) -6,12.817 and 12.3329 and 11.7119
same,"specific [3H]DPN binding, normalized to 100%",[2]; Log [ligand] (M) -6.5,19.572 and 16.0481 and 16.106
same,"specific [3H]DPN binding, normalized to 100%",[2]; Log [ligand] (M) -7,34.7156 and 27.5243 and 29.2083
same,"specific [3H]DPN binding, normalized to 100%",[2]; Log [ligand] (M) -7.5,62.865 and 48.8054 and 54.3277
same,"specific [3H]DPN binding, normalized to 100%",[2]; Log [ligand] (M) -8,85.7392 and 63.6235 and 68.5184
same,"specific [3H]DPN binding, normalized to 100%",[2]; Log [ligand] (M) -8.5,110.569 and 79.1117 and 88.8606
same,"specific [3H]DPN binding, normalized to 100%",[2]; Log [ligand] (M) -9,116.546 and 94.2824 and 100.104
same,"specific [3H]DPN binding, normalized to 100%",[2]; Log [ligand] (M) -9.5,100
same,Emax,[3],101 ± 2%
same,EC50,[3],1 nM
C=CCN1CC[C@]23c4c5ccc(O)c4O[C@H]2[C@H](NC(=O)[C@@H](Cc2ccccc2)NC(=O)[C@@H](NC(=O)[C@@H]2CSCC(=O)N[C@@H](CC(=O)O)C(=O)N[C@@H](C)C(=O)N[C@H](Cc4ccc(O)cc4)C(=O)N[C@H](C)C(=O)N[C@@H](C(C)C)C(=O)N2)[C@@H](C)O)CC[C@@]3(O)[C@H]1C5 [DNCP-β-NalA(3)] ({CH2CO}-DA[dY][dA]VCT[dF]-X1; thioether N-6),"specific [3H]DPN binding, normalized to 100%",[2]; Log [ligand] (M) -5,4.711 and 4.268 and 3.134
same,"specific [3H]DPN binding, normalized to 100%",[2]; Log [ligand] (M) -5.5,9.049 and 8.477 and 7.931
same,"specific [3H]DPN binding, normalized to 100%",[2]; Log [ligand] (M) -6,13.9379 and 12.8705 and 12.6183
same,"specific [3H]DPN binding, normalized to 100%",[2]; Log [ligand] (M) -6.5,21.3908 and 20.9203 and 21.0807
same,"specific [3H]DPN binding, normalized to 100%",[2]; Log [ligand] (M) -7,41.59 and 36.2221 and 28.4597
same,"specific [3H]DPN binding, normalized to 100%",[2]; Log [ligand] (M) -7.5,75.8729 and 62.6776 and 54.9604
same,"specific [3H]DPN binding, normalized to 100%",[2]; Log [ligand] (M) -8,98.7879 and 86.9193 and 89.7517
same,"specific [3H]DPN binding, normalized to 100%",[2]; Log [ligand] (M) -8.5,102.113 and 95.9134 and 97.9933
same,"specific [3H]DPN binding, normalized to 100%",[2]; Log [ligand] (M) -9,101.53 and 101.749 and 103.107
same,"specific [3H]DPN binding, normalized to 100%",[2]; Log [ligand] (M) -9.5,100
same,Ki,[2],24 nM
same,Emax,[3],99 ± 1%
same,EC50,[3],14 nM
"CC(C)=CCN1CCC2(C)c3cc(O)ccc3CC1C2C (stereo not shown) [Pentazocine, pentazocine]","Gαi2, normalized response (single replicate values)",[4]; Log [ligand] (M) -5,63.0631 and 33.772 and 78.2944 and 66.7992 and -8.535 and 43.2571 and 15.0067 and 36.1153
same,"Gαi2, normalized response (single replicate values)",[4]; Log [ligand] (M) -6,81.8094 and 43.1452 and 67.7496 and 22.5401 and 66.7992 and 32.8986 (2×) and 41.9735
same,"Gαi2, normalized response (single replicate values)",[4]; Log [ligand] (M) -7,33.772 (2×) and 29.0855 and 9.357 and 40.4321 and 39.4904 and 59.2657 and 49.0034
same,"Gαi2, normalized response (single replicate values)",[4]; Log [ligand] (M) -8,36.1153 and 16.1974 and 29.0855 and -23.6023 and 39.4904 and 26.3069 and 33.8403 and 44.3168
same,"Gαi2, normalized response (single replicate values)",[4]; Log [ligand] (M) -9,-10.7504 and 16.1974 and 32.6004 and -17.0105 and 12.1816 and 27.2485 and 41.3738 and 15.0258
same,"Gαi2, normalized response (single replicate values)",[4]; Log [ligand] (M) -10,-1.377 and -15.4369 and -0.06023 (2×) and -7.594 and -5.71 and -13.0937
same,"Gαi2, normalized response (single replicate values)",[4]; Log [ligand] (M) -11,-3.721 and -2.549 and 15.0258 and 1.823 and -26.4273 and -45.2609 and 40.4321 and -15.4369
same,"Gαi2, normalized response (single replicate values)",[4]; Log [ligand] (M) -12,20.884 and 5.653 and -14.2653 and 5.59 and 13.1233 and -22.6606 and 37.607 and -1.377
same,Gαi2 (Figure 3j),"[4]; source data of Figure 3j, U50,488 about 100",42.2346
same,EC50,[5],1010 nM
same,β-arrestin-2 (Figure 3j),[5],38
same,Emax,"[5]; HEK293, read-out: Emax β-arrestin-1 recruitment",38 ± 24%
C=CCN1CC[C@]23c4c5ccc(O)c4O[C@H]2[C@H](NC(=O)[C@@H](Cc2ccccc2)NC(=O)[C@@H](NC(=O)[C@@H]2CSCC(=O)N[C@@H](Cc4ccc(O)cc4)C(=O)N[C@@H](C)C(=O)N[C@H](Cc4ccc(O)cc4)C(=O)N[C@@H]([C@@H](C)O)C(=O)N[C@@H]([C@@H](C)O)C(=O)N2)[C@@H](C)O)CC[C@@]3(O)[C@H]1C5 [DNCP-βNalA(1)] ({CH2CO}-YA[dY]TTCT[dF]-X1; thioether N-6),"response at D138A, Figure S26",[6]; Log [ligand] (M) -5,110.03 and 108.68 and 121.152 and 120.937 and 117.964 and 108.941 and 117.457
same,"response at D138A, Figure S26",[6]; Log [ligand] (M) -6,96.1567 and 103.986 and 100.687 and 108.287 and 104.111 and 103.774 and 93.2795 and 106.739
same,"response at D138A, Figure S26",[6]; Log [ligand] (M) -7,95.0352 and 99.2926 and 97.756 and 110.621 and 103.099 and 111.681 and 84.8048 and 93.7365
same,"response at D138A, Figure S26",[6]; Log [ligand] (M) -8,92.5638 and 91.2347 and 98.8959 and 103.021 and 118.301 and 103.099 and 100.466 and 95.1074
same,"response at D138A, Figure S26",[6]; Log [ligand] (M) -9,68.4109 and 66.6248 and 86.0309 and 72.0259 and 98.5019 and 110.7 and 66.4429 and 85.6772
same,Gi1-activation,[7]; M = -6,95.0321
same,Gi1-activation,[7]; M = -7,98.4538 and 95.0321 and 92.9731 (2×)
same,Gi1-activation,[7]; M = -9,93.8915 and 90.4927
same,Gi1-activation,[8]; M = -5,95.0144
same,Gi1-activation,[8]; M = -6,93.9606 and 93.3336 and 93.3709
same,Gi1-activation,[8]; M = -7,92.7066 and 94.3563
same,Gi1-activation,[8]; M = -8,92.7066 and 93.9606 and 93.6983
same,Gi1-activation,[9]; M = -5,98.4884 and 94.3563
same,Gi1-activation,[9]; M = -6,92.9882 and 93.5382 and 87.9287
same,Gi1-activation,[9]; M = -7,91.3288 and 89.81 and 94.9619
same,Gi1-activation,[9]; M = -8,94.9619 and 94.0882
same,βarrestin2-reruitment,[10]; M = -5,64.952 and 70.3776 and 70.3029
same,βarrestin2-reruitment,[10]; M = -6,64.952 (2×) and 65.8365 and 61.2954 and 65.7763 and 64.7423
same,βarrestin2-reruitment,[10]; M = -7,57.4606 and 53.3486 and 51.3006 and 53.3686 and 55.3202
same,βarrestin2-reruitment,[10]; M = -8,54.25 and 56.7544 and 54.4026 and 55.3202
same,βarrestin2-reruitment,[10]; M = -9,42.4779 and 34.0491 and 29.508 and 29.5871 and 25.4512 and 32.8461
same,βarrestin2-reruitment,[10]; M = -10,4.532 and 6.8027 and 4.772
C=CCN1CC[C@]23c4c5ccc(O)c4O[C@H]2[C@H](NC(=O)[C@@H](Cc2ccccc2)NC(=O)[C@H](CO)NC(=O)[C@@H]2CSCC(=O)N[C@H]([C@H](C)O)C(=O)N[C@@H](CC(N)=O)C(=O)N[C@H](CCC(=O)O)C(=O)N[C@H](CO)C(=O)N[C@H](CC(C)C)C(=O)N2)CC[C@@]3(O)[C@H]1C5 [DNCP-β-NalA(2)] ({CH2CO}-[dT]N[dE][dS][dL]CS[dF]-X1; thioether N-6),"specific [3H]DPN binding, normalized to 100%",[2]; Log [ligand] (M) -5,0.2531 and 1.3817 and 8.417
same,"specific [3H]DPN binding, normalized to 100%",[2]; Log [ligand] (M) -5.5,5.254 and 5.706 and 15.2738
same,"specific [3H]DPN binding, normalized to 100%",[2]; Log [ligand] (M) -6,8.812 and 8.467 and 22.3516
same,"specific [3H]DPN binding, normalized to 100%",[2]; Log [ligand] (M) -6.5,20.0364 and 16.1798 and 28.5928
same,"specific [3H]DPN binding, normalized to 100%",[2]; Log [ligand] (M) -7,30.6965 and 29.2448 and 46.3656
same,"specific [3H]DPN binding, normalized to 100%",[2]; Log [ligand] (M) -7.5,73.9679 and 58.4159 and 82.1752
same,"specific [3H]DPN binding, normalized to 100%",[2]; Log [ligand] (M) -8,84.0925 and 77.2121 and 90.6295
same,"specific [3H]DPN binding, normalized to 100%",[2]; Log [ligand] (M) -8.5,94.004 and 85.6847 and 98.8664
same,"specific [3H]DPN binding, normalized to 100%",[2]; Log [ligand] (M) -9,85.0018 and 88.1692 and 96.9444
same,"specific [3H]DPN binding, normalized to 100%",[2]; Log [ligand] (M) -9.5,100
same,Ki,[2],31 nM
same,Emax,[3],89 ± 2%
same,EC50,[3],7.5 nM
